# According to patent US4725683A, “Fluorophenoxyphenoxypropionates and derivatives thereof” (The Dow Chemical Company, priority 1985, dated 1988):
# Columns and labels:
# Test in all cases: Selective postemergence, track sprayer
# Type in all cases: in vivo
# Red Top = system: Red Top
# Procedure: (§1) Representative compositions of the present invention were evaluated for the postemergence control of species of plants listed in Table A. In these evaluations, pots of the plant species listed in Table A, grown to a height of about 10 cms, were used. Aqueous spray compositions, containing various amounts of 2-[4-(2-fluoro-4-trifluoromethylphenoxy)-phenoxy]propionic acid methy ester, i.e., 125 ppm, 62.5 ppm, 31.25 ppm, 15.6 ppm, 7.8 ppm and 3.9 ppm, respectively, were applied to separate pots. The spray compositions were made by mixing the active ingredient in acetone to 1/2 the final volume, i.e., twice the final concentration. An equal amount of water was added to the active ingredient/acetone mixture wherein the water contained 0.1 percent by weight of TWEEN® 200 surfactant. The application to the plants was made to the point of run-off and was carried out with conventional spraying equipment. Other pots were sprayed with similar compositions containing no toxicant to serve as controls. Thereafter, the pots were maintained under conditions conducive for plant growth. Two weeks after treatment, the pots were examined for plant growth and evaluated on a scale of 0 to 100 where 0 represents no effect and 100 represents complete kill. The results of the examination of the treated pots are set forth below in Table A.
# (§2) To further define the selective postemergence herbicidal characteristics of compounds of the present invention, chemicals were applied to additional species of grasses as listed in Table F. Chemicals evaluated were 2-[4-(4-bromo-2-fluorophenoxy)phenoxy]propionic acid methyl ester and its R isomer. Treatment conditions were similar to those described in Example A except that chemicals were delivered through a track sprayer set to deliver the appropriate dosages in 280.6 L/hectare of water containing 0.1% Tween-20 surfactant.
# Cheatgrass = system: Cheatgrass
# Procedure: as §1, §2
# Annual Bluegrass = system: Annual Bluegrass
# Procedure: as §1, §2
# Johnsongrass = system: Johnsongrass
# Procedure: as §1, §2
# Goosegrass = system: Goosegrass
# Procedure: as §1, §2
# Orchardgrass = system: Orchardgrass
# Procedure: as §1, §2
# Yellow Foxtail = system: Yellow Foxtail
# Procedure: as §1, §2
# Sprangletop = system: Sprangletop
# Procedure: as §1, §2
# Downey Brome = system: Downey Brome
# Procedure: as §1, §2
# Tall Fescue = system: Tall Fescue
# Procedure: as §1, §2
# Fall Panicum = system: Fall Panicum
# Procedure: as §1, §2
# Wild Oats = system: Wild Oats
# Procedure: as §1, §2
smiles,measurement,setting,value
"COC(=O)C(C)Oc1ccc(Oc2ccc(Br)cc2F)cc1 (racemic) [Example 4-Bromo-, 2-[4-(4-bromo-2-fluorophenoxy)phenoxy]propionic acid methyl ester]",Percent Control,Red Top; 0.0011 kgs/hectare,0%
same,Percent Control,Red Top; 0.0023 kgs/hectare,0%
same,Percent Control,Red Top; 0.0045 kgs/hectare,0%
same,Percent Control,Red Top; 0.009 kgs/hectare,20%
same,Percent Control,Red Top; 0.035 kgs/hectare,50%
same,Percent Control,Red Top; 0.07 kgs/hectare,80%
same,Percent Control,Red Top; 0.14 kgs/hectare,90%
same,Percent Control,Red Top; 0.28 kgs/hectare,100%
same,Percent Control,Red Top; 0.56 kgs/hectare,100%
same,Percent Control,Cheatgrass; 0.0011 kgs/hectare,0%
same,Percent Control,Cheatgrass; 0.0023 kgs/hectare,0%
same,Percent Control,Cheatgrass; 0.0045 kgs/hectare,0%
same,Percent Control,Cheatgrass; 0.009 kgs/hectare,0%
same,Percent Control,Cheatgrass; 0.018 kgs/hectare,0%
same,Percent Control,Cheatgrass; 0.035 kgs/hectare,0%
same,Percent Control,Cheatgrass; 0.07 kgs/hectare,0%
same,Percent Control,Cheatgrass; 0.14 kgs/hectare,0%
same,Percent Control,Cheatgrass; 0.28 kgs/hectare,0%
same,Percent Control,Cheatgrass; 0.56 kgs/hectare,20%
same,Percent Control,Annual Bluegrass; 0.0011 kgs/hectare,0%
same,Percent Control,Annual Bluegrass; 0.0023 kgs/hectare,0%
same,Percent Control,Annual Bluegrass; 0.0045 kgs/hectare,0%
same,Percent Control,Annual Bluegrass; 0.009 kgs/hectare,0%
same,Percent Control,Annual Bluegrass; 0.018 kgs/hectare,0%
same,Percent Control,Annual Bluegrass; 0.035 kgs/hectare,0%
same,Percent Control,Annual Bluegrass; 0.07 kgs/hectare,0%
same,Percent Control,Annual Bluegrass; 0.14 kgs/hectare,0%
same,Percent Control,Annual Bluegrass; 0.28 kgs/hectare,0%
same,Percent Control,Annual Bluegrass; 0.56 kgs/hectare,0%
same,Percent Control,Johnsongrass; 0.0011 kgs/hectare,0%
same,Percent Control,Johnsongrass; 0.0023 kgs/hectare,0%
same,Percent Control,Johnsongrass; 0.0045 kgs/hectare,0%
same,Percent Control,Johnsongrass; 0.009 kgs/hectare,0%
same,Percent Control,Johnsongrass; 0.035 kgs/hectare,0%
same,Percent Control,Johnsongrass; 0.07 kgs/hectare,0%
same,Percent Control,Johnsongrass; 0.14 kgs/hectare,20%
same,Percent Control,Johnsongrass; 0.28 kgs/hectare,30%
same,Percent Control,Johnsongrass; 0.56 kgs/hectare,80%
same,Percent Control,Goosegrass; 0.0011 kgs/hectare,0%
same,Percent Control,Goosegrass; 0.0023 kgs/hectare,0%
same,Percent Control,Goosegrass; 0.0045 kgs/hectare,30%
same,Percent Control,Goosegrass; 0.009 kgs/hectare,20%
same,Percent Control,Goosegrass; 0.035 kgs/hectare,80%
same,Percent Control,Goosegrass; 0.07 kgs/hectare,100%
same,Percent Control,Goosegrass; 0.14 kgs/hectare,100%
same,Percent Control,Goosegrass; 0.28 kgs/hectare,100%
same,Percent Control,Goosegrass; 0.56 kgs/hectare,100%
same,Percent Control,Orchardgrass; 0.0011 kgs/hectare,0%
same,Percent Control,Orchardgrass; 0.0023 kgs/hectare,0%
same,Percent Control,Orchardgrass; 0.0045 kgs/hectare,0%
same,Percent Control,Orchardgrass; 0.009 kgs/hectare,0%
same,Percent Control,Orchardgrass; 0.035 kgs/hectare,0%
same,Percent Control,Orchardgrass; 0.07 kgs/hectare,80%
same,Percent Control,Orchardgrass; 0.14 kgs/hectare,90%
same,Percent Control,Orchardgrass; 0.28 kgs/hectare,90%
same,Percent Control,Orchardgrass; 0.56 kgs/hectare,90%
same,Percent Control,Yellow Foxtail; 0.0011 kgs/hectare,0%
same,Percent Control,Yellow Foxtail; 0.0023 kgs/hectare,0%
same,Percent Control,Yellow Foxtail; 0.0045 kgs/hectare,0%
same,Percent Control,Yellow Foxtail; 0.009 kgs/hectare,40%
same,Percent Control,Yellow Foxtail; 0.035 kgs/hectare,80%
same,Percent Control,Yellow Foxtail; 0.07 kgs/hectare,100%
same,Percent Control,Yellow Foxtail; 0.14 kgs/hectare,100%
same,Percent Control,Yellow Foxtail; 0.28 kgs/hectare,100%
same,Percent Control,Yellow Foxtail; 0.56 kgs/hectare,100%
same,Percent Control,Sprangletop; 0.0011 kgs/hectare,0%
same,Percent Control,Sprangletop; 0.0023 kgs/hectare,20%
same,Percent Control,Sprangletop; 0.0045 kgs/hectare,95%
same,Percent Control,Sprangletop; 0.009 kgs/hectare,100%
same,Percent Control,Sprangletop; 0.035 kgs/hectare,100%
same,Percent Control,Sprangletop; 0.14 kgs/hectare,100%
same,Percent Control,Sprangletop; 0.28 kgs/hectare,100%
same,Percent Control,Sprangletop; 0.56 kgs/hectare,100%
same,Percent Control,Downey Brome; 0.0011 kgs/hectare,0%
same,Percent Control,Downey Brome; 0.0023 kgs/hectare,0%
same,Percent Control,Downey Brome; 0.0045 kgs/hectare,0%
same,Percent Control,Downey Brome; 0.009 kgs/hectare,0%
same,Percent Control,Downey Brome; 0.018 kgs/hectare,0%
same,Percent Control,Downey Brome; 0.035 kgs/hectare,0%
same,Percent Control,Downey Brome; 0.07 kgs/hectare,0%
same,Percent Control,Downey Brome; 0.14 kgs/hectare,0%
same,Percent Control,Downey Brome; 0.28 kgs/hectare,0%
same,Percent Control,Downey Brome; 0.56 kgs/hectare,0%
same,Percent Control,Tall Fescue; 0.0011 kgs/hectare,0%
same,Percent Control,Tall Fescue; 0.0023 kgs/hectare,10%
same,Percent Control,Tall Fescue; 0.0045 kgs/hectare,20%
same,Percent Control,Tall Fescue; 0.009 kgs/hectare,20%
same,Percent Control,Tall Fescue; 0.035 kgs/hectare,60%
same,Percent Control,Tall Fescue; 0.14 kgs/hectare,90%
same,Percent Control,Tall Fescue; 0.28 kgs/hectare,95%
same,Percent Control,Tall Fescue; 0.56 kgs/hectare,95%
same,Percent Control,Fall Panicum; 0.0011 kgs/hectare,0%
same,Percent Control,Fall Panicum; 0.0023 kgs/hectare,20%
same,Percent Control,Fall Panicum; 0.0045 kgs/hectare,50%
same,Percent Control,Fall Panicum; 0.009 kgs/hectare,80%
same,Percent Control,Fall Panicum; 0.035 kgs/hectare,100%
same,Percent Control,Fall Panicum; 0.14 kgs/hectare,100%
same,Percent Control,Fall Panicum; 0.28 kgs/hectare,100%
same,Percent Control,Fall Panicum; 0.56 kgs/hectare,100%
same,Percent Control,Wild Oats; 0.0011 kgs/hectare,0%
same,Percent Control,Wild Oats; 0.0023 kgs/hectare,0%
same,Percent Control,Wild Oats; 0.0045 kgs/hectare,0%
same,Percent Control,Wild Oats; 0.009 kgs/hectare,0%
same,Percent Control,Wild Oats; 0.035 kgs/hectare,40%
same,Percent Control,Wild Oats; 0.07 kgs/hectare,40%
same,Percent Control,Wild Oats; 0.14 kgs/hectare,70%
same,Percent Control,Wild Oats; 0.28 kgs/hectare,90%
same,Percent Control,Wild Oats; 0.56 kgs/hectare,100%
